According to ChEMBL document CHEMBL5674860, “Optimized Dual-Glo Assay to identify co-culture-induced drug vulnerabilities in 3D CRC models” (2024):

Tests used:
Format in all cases: functional, Homo sapiens
Design in all cases: dose or concentration left out as unconfirmed
Colon cancer organoid [1] = assay: Optimized Dual-Glo assay to identify co-culture induced drug vulnerabilities using donated chemical probes and chemogenomics kinase set in O14 CRC organoid and F14 CAF mono and co-culture. […] Cell viability is reported both mono and co-culture models.
Colon cancer organoid [2] = assay: Optimized Dual-Glo assay to identify co-culture induced drug vulnerabilities using donated chemical probes and chemogenomics kinase set in O20 CRC organoid and F20 CAF mono and co-culture. […] Cell viability is reported both mono and co-culture models.
Colon cancer organoid [3] = assay: Optimized Dual-Glo assay to identify co-culture induced drug vulnerabilities using donated chemical probes and chemogenomics kinase set in O06 CRC organoid and F06 CAF mono and co-culture. […] Cell viability is reported both mono and co-culture models.
[4] = Culture type Co-Culture, Transduced with Lucferase2-P2A-EGFP lentivirus
[5] = Culture type Co-Culture, Transduced with Renilla-dsRed lentivirus
[6] = Culture type Mono-Culture, Transduced with Lucferase2-P2A-EGFP lentivirus
[7] = Culture type Mono-Culture, Transduced with Renilla-dsRed lentivirus

Row | Structure (SMILES) | Cell Viability (Colon cancer organoid [1]; [4]) [%] | Cell Viability (Colon cancer organoid [1]; [5]) [%] | Cell Viability (Colon cancer organoid [1]; [6]) [%] | Cell Viability (Colon cancer organoid [1]; [7]) [%] | Cell Viability (Colon cancer organoid [2]; [4]) [%] | Cell Viability (Colon cancer organoid [2]; [5]) [%] | Cell Viability (Colon cancer organoid [2]; [6]) [%] | Cell Viability (Colon cancer organoid [2]; [7]) [%] | Cell Viability (Colon cancer organoid [3]; [4]) [%] | Cell Viability (Colon cancer organoid [3]; [5]) [%] | Cell Viability (Colon cancer organoid [3]; [6]) [%] | Cell Viability (Colon cancer organoid [3]; [7]) [%]
1 | O=C(O)c1ccc(-c2coc3ncc(-c4ccccc4)cc23)cc1Cl | 199.753 | 90.4064 | 200.801 | 87.3818 | 189.357 | 126.188 | 202.493 | 116.18 | 226.279 | 119.386 | 202.946 | 112.766
2 | Cc1cc(-n2nc(Cc3cc(F)cc(C(F)(F)F)c3)nc2C)ccc1C(N)=O [TP-024] | 111.425 | 96.0369 | 116.033 | 105.901 | 120.055 | 118.791 | 103.637 | 122.989 | 141.247 | 165.614 | 109.141 | 106.563
3 | Cn1cc(-c2ccc3occ(-c4ccccc4-c4ccccc4)c3n2)cn1 | 101.217 | 93.8283 | 119.561 | 96.0811 | 88.7548 | 89.3741 | 123.78 | 115.172 | 137.24 | 150.558 | 120.153 | 121.662
4 | COc1c(OCCCN2CCOCC2)ccc2c1N=C(NC(=O)c1cnc(N)nc1)N1CCN=C21 [COPANLISIB] | 3.879 | 63.1617 | 2.323 | 50.5605 | 2.276 | 117.524 | 0.6907 | 109.388 | 1.487 | 40.0213 | 1.127 | 24.3347
5 | CCCOc1ccn2c(C(C)=O)cc(-c3cccc(OC)c3)c2c1 | 84.3946 | 120.115 | 124.987 | 98.1469 | 76.4747 | 110.044 | 113.084 | 103.998 | 110.241 | 146.669 | 131.845 | 119.651
6 | Nc1nc(NCc2ccccc2)nc(-c2cccc(CO)c2)n1 [ZINC32547799] | 88.7631 | 96.1691 | 137.995 | 97.2983 | 123.978 | 66.6285 | 56.0193 | 93.8657 | 97.3324 | 116.001 | 131.751 | 105.708
7 | CCC(=O)N1CCOc2c(cc(-c3ccc(OC)c(OC)c3)cc2OCC2CCCN(C)C2)C1 (stereo unspecified) | 85.4363 | 159.816 | 85.7096 | 112.054 | 85.3108 | 123.175 | 108.47 | 90.76 | 113.999 | 135.091 | 45.0129 | 100.645
8 | CC(C)N(CCCNC(=O)Nc1ccc(C(C)(C)C)cc1)C[C@H]1O[C@@H](n2cc(Br)c3c(N)ncnc32)[C@H](O)[C@@H]1O | 69.7796 | 119.823 | 60.0766 | 78.3641 | 59.1388 | 110.156 | 82.1777 | 84.781 | 62.4885 | 97.8527 | 76.7332 | 88.3272
9 | Cc1cc(C)cc(C(=O)NOCCCCCC(=O)NO)c1 | 50.8168 | 381.601 | 48.3088 | 262.893 | 15.3163 | 402.959 | 16.4949 | 194.272 | 13.8956 | 454.718 | 14.9602 | 431.4
10 | CCCCN(CCCC)C(=O)CN1C[C@@H](c2cc(OC)c3c(c2)OCO3)[C@H](C(=O)O)[C@H]1CC(C)(C)CCC [A-545] | 105.072 | 96.9928 | 119.694 | 109.859 | 123.099 | 97.2502 | 106.602 | 112.439 | 124.297 | 133.906 | 113.751 | 92.0951
11 | O=C(c1ccc(F)c(F)c1Nc1ccc(I)cc1F)N1CC(O)([C@@H]2CCCCN2)C1 [COBIMETINIB] | 2.787 | 24.389 | 1.583 | 12.612 | 4.023 | 77.761 | 4.662 | 37.2771 | 5.143 | 42.4292 | 6.053 | 35.0976
12 | CNc1nc(Nc2cnn([C@H]3CCN(C4COC4)C[C@@H]3F)c2Cl)ncc1C(F)(F)F | 116.318 | 104.728 | 169.727 | 102.216 | 199.298 | 86.9942 | 108.189 | 89.737 | 94.4056 | 87.0484 | 128.459 | 108.44
13 | Cc1ncsc1-c1ccc(CNC(=O)[C@@H]2C[C@@H](O)CN2C(=O)[C@@H](NC(=O)CCCCNC(=O)c2ccc(-c3ccc(N4CCN(C)CC4)c(NC(=O)c4c[nH]c(=O)cc4C(F)(F)F)c3)cc2)C(C)(C)C)cc1 | 94.9121 | 103.946 | 89.8204 | 93.3904 | 171.817 | 86.697 | 106.449 | 104.541 | 81.8894 | 85.2238 | 101.813 | 95.3362
14 | COc1cc(C(=O)O)ncc1C#Cc1ccccc1NS(=O)(=O)c1cccc2c(N(C)C)ccnc12 [MSC-0516] | 94.2911 | 93.5429 | 114.942 | 88.0348 | 89.6649 | 109.372 | 112.972 | 85.9962 | 46.2412 | 64.6541 | 39.7973 | 95.1501
15 | O=C(Nc1cccnn1)N1CCC(=Cc2cccc(Oc3ccc(C(F)(F)F)cn3)c2)CC1 | 80.0964 | 115.877 | 79.6396 | 77.8588 | 75.4997 | 114.419 | 100.525 | 97.4491 | 113.161 | 193.053 | 80.1285 | 90.1757
16 | Cc1nc(-c2cn3c(n2)-c2ccc(-c4cnn(C(C)(C)C(N)=O)c4)cc2OCC3)n(C(C)C)n1 [TASELISIB] | 25.1108 | 133.934 | 29.7364 | 65.8836 | 15.8608 | 146.008 | 9.086 | 84.7341 | 42.3556 | 62.2904 | 29.0303 | 59.8749
17 | O=C(O)[C@@H]1[C@@H](Cn2nnc3ccccc3c2=O)CC[C@H]1C(=O)c1ccc(OCCC2CCOCC2)cc1 [BAY-694] | 106.85 | 112.908 | 118.458 | 100.512 | 92.0939 | 91.7477 | 167.035 | 108.76 | 117.739 | 144.793 | 97.4704 | 83.1858
18 | Nc1nc(NCc2ccccc2)nc(-c2ccccc2CO)n1 [Ogerin] | 77.8704 | 129.106 | 105.546 | 105.714 | 80.9307 | 98.0569 | 82.507 | 92.5232 | 100.001 | 107.856 | 82.0596 | 96.3715
